Test results reported in PMC8861615, “Searching for plant-derived antivirals against dengue virus and Zika virus” (Virology Journal, 2022).
“Also recorded” adds a separate entry of the source. Where two headings read alike, the source gives them in different places.

Legend:
DENV-2 [1] = assay: Anti-DENV-2 activity by viral CPE reduction and MTT method in BHK-21 cells; assay type: cell-based, Dengue virus serotype 2
Method: (§1) Plant extracts were screened for their cytotoxic and anti-ZIKV and anti-DENV activities in Vero cells and BHK-21, respectively, in 96-well culture plates by observing the reduction of the viral cytopathic effect (CPE) and then measured by the MTT method. The crude extracts were dissolved in 4% DMSO aqueous solution, and their concentration was normalized to 50 µg/ml with Eagle's minimum essential medium (MEM) supplemented with 2% fetal bovine serum (FBS). Briefly, 8 × 10^3 of BHK-21 cells or 1 × 10^4 of Vero cells per well were seeded in a 96-well plate and incubated for 24 h at 37 °C and 5% CO2 atmosphere. Extract solution and virus suspension, at a multiplicity of infection (m.o.i.) of 2, for both viruses, were simultaneously added on 70% confluent monolayers. Each extract was tested in duplicate. Controls of untreated infected and untreated uninfected cells incubated with or without DMSO were included. Interferon-α 2B, in concentrations of 500 and 1000 IU/mL, was used as a positive antiviral control in all antiviral assays. […] Briefly, the supernatants were removed, and 30 µl of a stock solution of MTT (2 mg/ml) dissolved in phosphate-buffered saline were added to each well. After 90 min of incubation at 37 °C, 130 µl of DMSO were added to each well, and plates were homogenized for 5 min at 500 rpm. The absorbance values of each reaction were measured in an ELISA reader (Spectra Max, Molecular Devices, USA) at λ540 nm. […] Cytotoxicity (CC50) and anti-ZIKV/DENV-2 (CE50) experiments were performed in duplicate and repeated at least three times.
(§2) Viral CPE and cell viability were observed by optic microscopy and measured by the MTT method as previously described. […] The experiments were performed in duplicate and repeated at least three times.
(§3) Bioassay data were normalized to untreated uninfected cells and the EC50 and CC50 values were obtained using GraphPad Prism 5 based on nonlinear logistic regression of the experimental dose–response curves. […] The CC50 and EC50 values ratio was used as a selectivity index (SI).

ZIKV [2] = assay: microbe, parasite or virus in culture; assay type: cell-based, Zika virus; settings: for ZIKV EC50 (µM) / EC50: compounds, Vero cells, MTT
Method: as §1, §2, §3

BHK-21 cells = assay: Cytotoxicity (CC50) by MTT method in BHK-21 cells; assay type: cell-based, Hamster; settings: for CC50: compounds, MTT
Method: (§4) Compounds and selected extracts that tested positive for anti-ZIKV or anti-DENV-2 activity at the screening step had their CC50 determined by using an 8‐point dose range in 96 well microplate containing Vero or BHK-21 cell monolayers. Cell viability was observed by optic microscopy and measured by the MTT method as described. The experiments were performed in duplicate and repeated at least three times.
(§5) Bioassay data were normalized to untreated uninfected cells and the EC50 and CC50 values were obtained using GraphPad Prism 5 based on nonlinear logistic regression of the experimental dose–response curves. The values correspond to three independent assays' average and standard deviation with at least 8 sample distinct concentrations. The CC50 and EC50 values ratio was used as a selectivity index (SI). The extracts and compounds with higher SI values were considered the most promising and selected for further investigation if available in sufficient quantities.

Vero cells = assay: Cytotoxicity (CC50) by MTT method in Vero cells; assay type: cell-based; settings: for CC50: compounds, MTT
Method: as §4, §5

DENV-2 [3] = assay: Virucidal activity by plaque reduction assay, DENV in BHK-21 cells; assay type: cell-based, Dengue virus serotype 2; settings: compounds
Method: (§6) The virucidal activity of extracts and compounds against ZIKV and DENV was assessed by plaque reduction assay in Vero and BHK-21 cells, respectively, in 24 well microplates. […] Virus suspension without the extract/compound was included as a control. Surviving infectious viral particles were assessed by viral plaque formation assay. Briefly, the infected monolayers were overlaid with 1.5% carboxymethyl cellulose containing MEM with 2% FBS and incubated for five days. After that, cell monolayers were fixed with 10% formaldehyde and stained with 1% crystal violet 1% in an 30% ethanol aqueous solution.

ZIKV [4] = assay: Virucidal activity by plaque reduction assay, ZIKV in Vero cells; assay type: cell-based, Zika virus; settings: compounds
Method: as §6

[5] = Cytotoxicity (CC50) by MTT method in BHK-21 cells; assay type: cell-based, Hamster; settings: hamster, compounds, MTT
Method: as §4, §5

[6] = Cytotoxicity (CC50) by MTT method in Vero cells; assay type: cell-based; settings: African green monkey, compounds, MTT
Method: as §4, §5

[7] = Dengue virus, DENV2, BHK-21, read-out: DENV-2 EC50 (µM)
[8] = compounds, BHK-21 cells, MTT, read-out: DENV-2 EC50

Compound	DENV-2 EC50 (µM) (DENV-2 [1]; compounds, BHK-21 cells, MTT)	CC50 (BHK-21 cells) [µM]	CC50 (Vero cells) [µM]	DENV-2 Virucidal activity (DENV-2 [3])	ZIKV Virucidal activity (ZIKV [4])	EC50 (ZIKV [2]) [µM]	other results
CC(=O)O[C@H]1[C@H]2c3cc4c(cc3CN3CCC(=C[C@@H]1OC(C)=O)[C@H]23)OCO4 [1,2-diacetyl-lycorine]	no antiviral activity; also recorded: Inactive	> 100	> 100	No	No	–	ZIKV EC50 (µM) (ZIKV [2]): Inactive
CC(=O)O[C@H]1[C@H]2c3cc4c(cc3CN3CCC(=C[C@@H]1O)[C@H]23)OCO4 [1-acetyl-lycorine]	no antiviral activity; also recorded: Inactive	7.8	19.8	No	No	19.3	–
O[C@H]1[C@H]2c3cc4c(cc3CN3CCC(=C[C@@H]1O)[C@H]23)OCO4 [Lycorine]	–	–	–	No	No	–	EC50 (DENV-2 [1]; [7]): 0.5 µM; EC50 (ZIKV [2]; Zika virus): 0.9 µM; CC50 [5]: 4.3 µM; CC50 [6]: 3.4 µM
O=C1NC2C(=C[C@H](O)[C@@H](O)[C@H]2OC2OCC(O)C(O)C2O)c2cc3c(c(O)c21)OCO3 (stereo partly drawn) [Narciclasine-4-O-β-D-xylopyranoside, narciclasine-4-O-β-D-xylopyranoside]	–	39.3	51.8	No	No	7.9	EC50 (DENV-2 [1]; [8]): 7.9 µM; Times less toxic than narciclasine in BHK-21 cells (BHK-21 cells; ratio versus narciclasine): 430 times; Times less toxic than narciclasine in Vero cells (Vero cells; ratio versus narciclasine): 430 times
O=C1N[C@@H]2C(=C[C@H](O)[C@@H](O)[C@H]2O)c2cc3c(c(O)c21)OCO3 [Narciclasine]	–	–	–	No	No	0.02	EC50 (DENV-2 [1]; [8]): 0.02 µM; Active concentration against DENV-2, times less than lycorine (DENV-2 [1]; ratio versus lycorine): 25 times; Active concentration against DENV-2, times less than pretazettine (DENV-2 [1]; ratio versus pretazettine): 40 times; Active concentration against ZIKV, times less than lycorine (ZIKV [2]; ratio versus lycorine): 45 times; Active concentration against ZIKV, times less than pretazettine (ZIKV [2]; ratio versus pretazettine): 95 times
CO[C@@H]1C=C[C@@]23c4cc5c(cc4C(O)O[C@H]2CN(C)[C@H]3C1)OCO5 (stereo partly drawn) [Pretazettine]	–	–	–	No	No	–	EC50 (DENV-2 [1]; [7]): 0.8 µM; EC50 (ZIKV [2]; Zika virus): 1.9 µM; CC50 ([5]; BHK-21 cell monolayers): 5.4 µM; CC50 ([6]; Vero cell monolayers): 7.2 µM
C[C@@H]1O[C@@H](OC[C@H]2O[C@@H](Oc3c(-c4ccc(O)c(O)c4)oc4cc(O)cc(O)c4c3=O)[C@H](O)[C@@H](O)[C@@H]2O)[C@H](O)[C@H](O)[C@H]1O [Rutine]	no antiviral activity; also recorded: Inactive	> 300	> 300	No	–	–	ZIKV EC50 (µM) (ZIKV [2]): no antiviral activity; also recorded: Inactive
